Target: T1, MAP3K11 (MLK3) (Homo sapiens, UniProt Q16584)
T1 construct: purchased Thermo Fisher Scientific (Life Technologies) SelectScreen
Experiment: SelectScreen LanthaScreen
Type: binding
Details: 1 µM
Summary of the method: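 SelectScreen broad panel; activity (Z'LYTE, Adapta) plus binding formats. ATP: Km app for CSF1R Z'LYTE; 10 for CAMK1 Adapta. Readout = % per kinase.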

T1 sequence (Q16584 whole entry): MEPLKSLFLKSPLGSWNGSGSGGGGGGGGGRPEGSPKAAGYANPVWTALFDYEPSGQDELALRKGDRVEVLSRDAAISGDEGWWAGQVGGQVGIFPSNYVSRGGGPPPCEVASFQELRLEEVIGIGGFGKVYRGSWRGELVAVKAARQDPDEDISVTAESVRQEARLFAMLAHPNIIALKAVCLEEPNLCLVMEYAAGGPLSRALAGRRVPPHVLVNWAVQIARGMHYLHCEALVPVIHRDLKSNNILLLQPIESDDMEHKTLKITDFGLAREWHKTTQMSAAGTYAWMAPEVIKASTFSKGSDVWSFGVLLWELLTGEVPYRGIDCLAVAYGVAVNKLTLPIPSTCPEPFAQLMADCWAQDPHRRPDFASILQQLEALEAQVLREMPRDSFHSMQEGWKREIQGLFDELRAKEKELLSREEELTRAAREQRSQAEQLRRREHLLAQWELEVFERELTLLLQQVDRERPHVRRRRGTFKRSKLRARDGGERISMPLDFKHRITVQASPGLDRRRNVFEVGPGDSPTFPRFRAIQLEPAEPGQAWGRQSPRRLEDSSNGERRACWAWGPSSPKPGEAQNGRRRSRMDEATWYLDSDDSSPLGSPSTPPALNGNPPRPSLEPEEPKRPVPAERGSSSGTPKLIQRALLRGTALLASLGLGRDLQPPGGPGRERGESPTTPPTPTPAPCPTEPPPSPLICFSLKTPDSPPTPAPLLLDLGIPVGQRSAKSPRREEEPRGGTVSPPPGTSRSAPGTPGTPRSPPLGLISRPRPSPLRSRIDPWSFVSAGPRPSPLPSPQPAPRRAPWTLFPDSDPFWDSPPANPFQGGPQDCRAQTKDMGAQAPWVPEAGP

CN(C(=O)CN1CCOCC1)c1ccc2sc3c(-c4cccc5c(=O)cc(N6CC7CCC(C6)O7)oc45)cccc3c2c1 [NU5455] was tested, and the “% displacement” value was 4.0%.

Reference: article PMC6934184, “Selective DNA-PKcs inhibition extends the therapeutic index of localized radiotherapy and chemotherapy” (The Journal of Clinical Investigation, 2019)
